From US8410135B2, “4,5 dihydro-(1H)-pyrazole derivatives as cannabinoid CB1 receptor modulators” (Solvay Pharmaceuticals B.V., priority 2007, dated 2013) come the findings set out here.

Read-outs that look alike come from different tables or passages of the source.

The target of experiment [1] is T1, human cannabinoid CB2 receptors (Homo sapiens, UniProt P34972).
T1 construct: expressed in transfected cells
The experiment in a line: In vitro affinity for cannabinoid-CB2 receptors ([3H]CP-55,940 radioligand binding, CHO cell membranes). The protocol: In vitro affinity for cannabinoid-CB2 receptors: was determined using membrane preparations of CHO cells in which human cannabinoid CB2 receptors were stably transfected in conjunction with [^3H]CP-55,940 as radioligand. After incubation of a freshly prepared cell membrane preparation with the [^3H]-ligand, with or without addition of compounds of the invention, separation of bound and free ligand was performed by filtration over glassfiber filters. Radioactivity on the filter was measured by liquid scintillation counting.

For experiment [2], the target named is T2, human CB1 receptors (Homo sapiens, UniProt P21554).
T2 construct: expressed in transfected cells; host or cells: CHO cells
Briefly: In vitro cannabinoid-CB1 receptor (ant)agonism, [3H]-arachidonic acid release in CHO cells. The format is cell-based. The protocol: In vitro cannabinoid-CB1 receptor (ant)agonism was assessed with human CB1 receptors cloned in CHO cells. CHO cells were grown in a DMEM culture medium, supplemented with 10% heat-inactivated fetal calf serum. Medium was aspirated and replaced by DMEM, without fetal calf serum, but containing [^3H]-arachidonic acid and incubated overnight in a cell culture stove (5% CO2/95% air; 37° C.; water-saturated atmosphere). During this period [^3H]-arachidonic acid was incorporated in membrane phospholipids. On the test day, medium was aspirated and cells were washed three times using 0.5 ml DMEM, containing 0.2% BSA. CB1 agonist stimulation lead to activation of PLA2 followed by release of [^3H]-arachidonic acid into the medium. This CB1 agonist-induced release was concentration-dependently antagonized by CB1 receptor antagonists, such as rimonabant.

Experiment [3] deals with T3, human cannabinoid CB1 receptors (Homo sapiens, UniProt P21554).
T3 construct: expressed in transfected cells
The experiment in a line: In vitro affinity for cannabinoid-CB1 receptors ([3H]CP-55,940 radioligand binding, CHO cell membranes). How it is done:
In vitro affinity for cannabinoid-CB1 receptors was determined using membrane preparations of CHO cells in which human cannabinoid CB1 receptors were stably transfected in conjunction with [^3H]CP-55,940 as radioligand. After incubation of a freshly prepared cell membrane preparation with the [^3H]-ligand, with or without addition of compounds of the invention, separation of bound and free ligand was performed by filtration over glassfiber filters. Radioactivity on the filter was measured by liquid scintillation counting.

[4] abbreviates: membranes of CHO cells stably transfected with human CB2, radioligand [3H]CP-55,940, mean of at least three independent experiments, read-out: receptor binding Human CB2 [^3H]-CP-55,940 pKi (converted).
Setting [5] is: membranes of CHO cells stably transfected with human CB1, radioligand [3H]CP-55,940, mean of at least three independent experiments, read-out: receptor binding Human CB1 [^3H]-CP-55,940 pKi (converted).
The mark [6] stands for this setting: human CB1 receptors cloned in CHO cells, [3H]-arachidonic acid release.

T3 sequence (P21554 whole entry): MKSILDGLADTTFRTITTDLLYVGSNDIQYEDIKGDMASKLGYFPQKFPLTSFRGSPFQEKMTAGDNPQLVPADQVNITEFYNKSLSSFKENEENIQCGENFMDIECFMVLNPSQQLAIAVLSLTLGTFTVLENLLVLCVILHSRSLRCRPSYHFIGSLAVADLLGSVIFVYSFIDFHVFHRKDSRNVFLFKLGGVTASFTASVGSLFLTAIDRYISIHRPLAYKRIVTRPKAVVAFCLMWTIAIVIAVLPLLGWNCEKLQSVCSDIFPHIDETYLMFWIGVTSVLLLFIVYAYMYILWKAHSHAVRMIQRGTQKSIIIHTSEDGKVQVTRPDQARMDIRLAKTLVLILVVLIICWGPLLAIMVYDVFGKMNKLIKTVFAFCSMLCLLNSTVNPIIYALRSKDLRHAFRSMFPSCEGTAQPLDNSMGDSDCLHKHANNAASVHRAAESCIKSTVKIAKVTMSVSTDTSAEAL
T2 sequence (P21554 whole entry): as above
T1 sequence (P34972 whole entry): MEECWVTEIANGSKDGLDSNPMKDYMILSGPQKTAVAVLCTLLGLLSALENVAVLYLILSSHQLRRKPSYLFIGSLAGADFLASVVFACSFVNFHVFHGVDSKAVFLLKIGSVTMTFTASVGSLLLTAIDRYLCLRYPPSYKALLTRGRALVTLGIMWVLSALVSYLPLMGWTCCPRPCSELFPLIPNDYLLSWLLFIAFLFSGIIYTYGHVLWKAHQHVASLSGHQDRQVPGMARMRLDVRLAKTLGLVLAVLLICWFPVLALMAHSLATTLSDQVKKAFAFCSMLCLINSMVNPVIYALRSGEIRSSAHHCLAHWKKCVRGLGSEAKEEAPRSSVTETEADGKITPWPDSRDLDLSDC

In the case of `CCCCC1=NN(C(=O)CC(C)CC(C)(C)C)C(C)(C)C1c1ccccc1` (mixture of isomers) [Compound 39, [3-(n-butyl)-5,5-dimethyl-4-phenyl-4,5-dihydro-(1H)-pyrazol-1-yl]-3,5,5-trimethylhexan-1-one], the Ki is 0.0126 µM in experiment [1] (setting [4]) and 0.1 µM in experiment [3] (setting [5]). In addition, in experiment [2] (human CB1 receptors cloned in CHO cells, [3H]-arachidonic acid release, read-out: functional activity h-CB1 agonistic activity [^3H]-Arachidonic acid pEC50 (converted)), the EC50 is 0.0631 µM.
With `CCCCC1=NN(C(=O)N[C@H]2C[C@H]3CC[C@]2(C)C3(C)C)C(C)(C)C1c1ccccc1` (stereo partly drawn) [Compound 2, N-[Endo-(1R,2S,4R)-1,7,7-trimethylbicyclo[2.2.1]hept-2-yl]-3-(n-butyl)-5,5-dimethyl-4-phenyl-4,5-dihydro-(1H)-pyrazole-1-carboxamide], the Ki is 0.00398 µM in experiment [1] and 0.0126 µM in experiment [3]. Moreover, the “functional activity h-CB1 agonistic activity [^3H]-Arachidonic acid pEC50” value in experiment [2] (setting [6]) amounted to 7.4.
With `CCCCC1=NN(C(=O)NC(C)(C)c2ccccc2)C(C)(C)C1c1ccccc1` (stereo not drawn) [Compound 1, N-(1-methyl-1-phenyl-ethyl)-3-(n-butyl)-5,5-dimethyl-4-phenyl-4,5-dihydro-(1H)-pyrazole-1-carboxamide], the figures for the Ki in experiment [1] (setting [4]) and in experiment [3] (setting [5]) were 0.00398 µM and 0.00794 µM, respectively. Further, the “functional activity h-CB1 agonistic activity [^3H]-Arachidonic acid pEC50” value in experiment [2] (setting [6]) was 8.1.
As to `CCCCC1=NN(C(=O)N[C@@H]2C[C@H]3CC[C@H]2C3)C(C)(C)C1c1ccccc1` (relative stereo) [Compound 19, N-(rel-exo-bicyclo[2.2.1]hept-2-yl)-3-(n-butyl)-5,5-dimethyl-4-phenyl-4,5-dihydro-(1H)-pyrazole-1-carboxamide], the Ki in experiment [1] is 0.00794 µM; in experiment [3], 0.0251 µM. Further, the EC50 in experiment [2] was 0.1 µM.
